# Laboratory results published in patent US5741782A, “Antibiotic cocktail and method of use” (Cryolife, Inc., priority 1996, dated 1998).
# Values joined by “and” are separate entries in the source; they are usually repeats but may differ in a detail not shown here. Identical values can stand only once. Like-named read-outs stand apart in the source and are kept apart here.
# Legend:
# [1] = tested on: Candida albicans ATCC strain 14053; test: survival of Candida albicans in antifungal cocktails (membrane filtration enumeration); assay type: cell-based; conditions: Example 14; for fungicidal activity (in words): Tube B, fluconazole 100 μg/ml, amphotericin B 0.6 μg/ml, or fluconazole 100 + amphotericin B 0.3 μg/ml; for surviving yeast, Tube B: Tube B (734 CFU/ml at time zero), 35° C.
# Method: The Candida albicans used in these studies was ATCC strain 14053 (American Type Culture Collection). The purity of the strain was verified before and after cultivation.
# The test organism was cultured on a Sabouraud Agar Plate, streaked for isolation, and incubated at 35° C. for 24 hours. A single colony was removed using a sterile cotton swab and placed in 5.0 ml of sterile saline. The mixture was vortexed, and dilutions were made and compared to a standard turbidity chart until the turbidity matched a 0.5 turbidity standard (a 0.5 MacFarland turbidity standard suspension). Serial dilutions were made as follows: (1) 0.5 ml of the 0.5 MacFarland turbidity standard was added to 4.5 ml of sterile normal saline (Tube A; expected population 10^5 cfu/ml); (2) 0.1 ml of the Tube A suspension was added to 9.9 ml of sterile normal saline (Tube B; expected population 10^3 cfu/ml); and (3) 0.1 ml of the Tube B suspension was added to 9.9 ml of sterile normal saline (Tube C; expected population 10 cfu/ml). Each serial dilution was vortexed for 30 seconds before the next transfer.
# Tubes B and C were challenged with these cocktails. Each cocktail (24.0 ml) was placed into a sterile 115 ml plastic cup, and 1.0 ml of the yeast population from Tube B or C was added. The cups were mixed gently, capped and placed in the incubator for 24 hours at 35° C. After the prescribed incubation period, 1.0 ml of the yeast-cocktail mixture was removed from each tube and processed to obtain an enumeration of the surviving yeast organisms. The remaining mixture was placed back into the incubator and incubated for an additional 24 hours. After this incubation period, the cups were removed, swirled gently and 1.0 ml was removed, and the above process was repeated.
# Enumeration of the yeast was performed as follows; each sample was tested in duplicate, One milliliter (1.0 ml) of year suspension was added to the top assembly of a sterile disposable filter apparatus which contained 99 ml of sterile normal saline. The contents were mixed gently and filtered. The filter pad was removed aseptically using sterile disposable forceps and placed on Sabouraud Agar plates. The plates were incubated at 35° C. for 24 hours, and the colonies were then counted.
# [2] = tested on: cells responsible for allograft longevity in patients; conditions: literature: Hu et al., Lange and Hopkins, McNally and Brockbank; cited from earlier work
# [3] = tested on: valve leaflet fibroblasts; conditions: for AVG incorporation of 3H-glycine: Example 10; for percent of control: Example 2
# Method: (§1) Preferably, however, the tissue is incubated with a radioactively-labeled amino acid, and the incorporation of the amino acid into proteins is monitored by counting disintegrations per minute (DPM) per unit of tissue.
# (§2) All of the valve leaflet halves were incubated for 48 hours at 37° C. in the antibiotic cocktails and then cryopreserved.
# (§3) Experiment #2: Paired halves of leaflets were again used. One half was used as a fresh control and immediately labelled with ^3 H-glycine to determine leaflet fibroblast viability (see below). […] The antibiotic-treated leaflets were incubated for 48 hours at 37° C. in the antibiotic cocktails and then cryopreserved.
# (§4) A 1.8 ml Nalge cryovial was used to contain the leaflet tissue. The freezing program takes the tissue from +4° to -80° C. in approx 80 to 90 minutes.
# (§5) The valve leaflet halves were stored in liquid nitrogen freezer for at least two days, but no more than three weeks, before being thawed.
# (§6) The valve leaflet halves were thawed by removing the valve tissue to be thawed from the liquid nitrogen freezer. As quickly as possible, the tissue was transferred to a 37° C. waterbath. When all of the ice had dissolved (about 2 minutes), the cryovial was transferred to a hood, and 4 ml of room temperature lactated Ringers plus 5% dextrose (DBLR) was dispensed into a 5-ml snap-cap tube (Falcon) for each cryovial being thawed. The exterior of the cryovial was rinsed with 70% isopropanol and any excess wiped away before opening. Using sterile forceps, the leaflet tissue was transferred into the tube containing the DBLR. The tissue was allowed to remain in D5LR for 5 minutes.
# (§7) Tissue viability was assessed by the measurement of ^3 H-glycine incorporation into proteins as follows. The thawed valve leaflet halves were placed in snap-cap tubes (Falcon) containing 16 μCi of tritiated-glycine (DuPont New England Nuclear) in 1 ml of DMEM supplemented with 15 μg/ml ascorbic acid. Radiolabeled glycine incorporation was determined after a 48 hour incubation at 37° C. in an atmosphere consisting of 5% carbon dioxide in air. The tissue was then washed four times with phosphate-buffered saline, dehydrated with ethanol and ether, air dried and weighed. The tissue samples were then rehydrated with 200 μl of water and solubilized by the addition of 500 μl of 1M NaOH. After incubation at 60° C. for 1 hour, the samples were sonicated twice for 20-seconds. […] The filter discs were dried, and the proteins precipitated by addition of ice-cold 10% trichloroacetic acid for 30 minutes. This was followed by five ethanol rinses, two ether rinses, and drying. The discs were then placed in 10 ml of scintillation fluid (Cytoscint ES, ICN Biomedicals, Inc., Irvine, Calif.). Tritium incorporation was measured by scintillation counting using a LS1701 (Beckman Instruments, Inc., Palo Alto, Calif.).
# (§8) The incorporation of ^3 H-glycine into proteins is expressed in disintegrations per minute (DPM) per mg of dry tissue.
# yeast isolates = test: yeast challenge of antibiotic cocktails, overall; assay type: cell-based; conditions: for fungicidal activity (in words): Example 16, ten donor tissue isolates, 24 hours; for antiyeast activity at doses which maintain tissue viability (in words): summary of Examples 14 and 15
# Source text: The ten yeast isolates tested were:
# bacteria = conditions: general statement; cited from earlier work
# in vitro = conditions: human, heart valve leaflets, AVG % CONTRL, Example 3
# Method: as §1, §2, §3, §4, §5, §6, §7, §8
# [4] = tested on: valve leaflet fibroblasts; test: cells; conditions: Homo sapiens, Fibroblast, read-out: AVG percent of control, Example 2
# Method: as §1, §2, §3, §4, §5, §6, §7, §8
smiles,measurement,setting,value
"C[C@@H]1[C@H](O)[C@@H](C)/C=C/C=C/C=C/C=C/C=C/C=C/C=C/[C@H](O[C@@H]2O[C@H](C)[C@@H](O)[C@H](N)[C@@H]2O)C[C@@H]2O[C@](O)(C[C@@H](O)C[C@@H](O)[C@H](O)CC[C@@H](O)C[C@@H](O)CC(=O)O[C@H]1C)C[C@H](O)[C@H]2C(=O)O [Amphotericin B, amphotericin B]",fungicidal activity (in words),[1],fungicidal
same,toxicity (in words),[2],toxic to the cells responsible for allograft longevity in patients
same,average viability (in words),"[3]; Example 5, 0.3 μg/ml amphotericin B in the antibiotic mixture",average viability greater than the control
same,MEAN incorporation of 3H-glycine,"[3]; Example 11, 0.3 μg/ml amphotericin B, 24 hours",4965 DPM/mg
same,MEAN incorporation of 3H-glycine,"[3]; Example 11, 0.6 μg/ml amphotericin B, 24 hours",4960 DPM/mg
same,MEAN incorporation of 3H-glycine,"[3]; Example 11, 1.0 μg/ml amphotericin B, 24 hours",4914 DPM/mg
same,MEAN incorporation of 3H-glycine,"[3]; Example 11, 2.0 μg/ml amphotericin B, 24 hours",4236 DPM/mg
same,MEAN incorporation of 3H-glycine,"[3]; Example 11, 3.0 μg/ml amphotericin B, 24 hours",4452 DPM/mg
same,fungicidal activity (in words),yeast isolates,shows greater fungicidal activity
same,antiyeast activity at doses which maintain tissue viability (in words),yeast isolates,"Neither amphotericin B, nor fluconazole, alone substantially inhibits yeast growth at doses which substantially maintain tissue viability"
"OC(Cn1cncn1)(Cn1cncn1)c1ccc(F)cc1F [Fluconazole, fluconazole]","surviving yeast, Tube B",[1]; 24 hr,31 colonies
same,"surviving yeast, Tube B",[1]; 48 hr,45 colonies
same,fungicidal activity (in words),[1],suggests a tolerance or static phenomenon
same,viability after treatment (in words),"[3]; Example 1, 100 μg/ml fluconazole added",not harmful to the tissue
same,fungicidal activity (in words),yeast isolates,did not affect the fungicidal activity greatly
same,antiyeast activity at doses which maintain tissue viability (in words),yeast isolates,"Neither amphotericin B, nor fluconazole, alone substantially inhibits yeast growth at doses which substantially maintain tissue viability"
"C[C@@H](O)[C@H]1C(=O)N2C(C(=O)O)=C(SCCN=CN)C[C@H]12 [Imipenem, imipenem]",MEAN incorporation of 3H-glycine,"[3]; Example 8, 48 μg/ml imipenem, 24 h",5269 DPM/mg
same,MEAN incorporation of 3H-glycine,"[3]; Example 8, 48 μg/ml imipenem, 48 h",5316 DPM/mg
same,MEAN incorporation of 3H-glycine,"[3]; Example 8, 72 μg/ml imipenem, 24 h",6897 DPM/mg
same,MEAN incorporation of 3H-glycine,"[3]; Example 8, 72 μg/ml imipenem, 48 h",7198 DPM/mg
same,MEAN incorporation of 3H-glycine,"[3]; Example 8, 96 μg/ml imipenem, 24 h",5885 DPM/mg
same,MEAN incorporation of 3H-glycine,"[3]; Example 8, 96 μg/ml imipenem, 48 h",6526 DPM/mg
same,antibacterial activity (in words),bacteria,active against most aerobic gram-positive and gram-negative bacteria and most anaerobic gram-positive and gram-negative bacteria
same,viability,in vitro; 12 μg/ml imipenem + rifampin 10 μg/ml,86%
same,viability,in vitro; 24 μg/ml imipenem + rifampin 10 μg/ml,90%
same,viability,in vitro; 48 μg/ml imipenem + rifampin 10 μg/ml,104%
"CCN[C@@H]1C[C@H](N)[C@@H](O[C@H]2OC(CN)=CC[C@H]2N)[C@H](O)[C@H]1O[C@H]1OC[C@](C)(O)[C@H](NC)[C@H]1O [Netilmicin, netilmicin]",AVG incorporation of 3H-glycine,"[3]; 20 μg/ml netilmicin, 24 hours",4213 DPM/mg
same,AVG incorporation of 3H-glycine,"[3]; 30 μg/ml netilmicin, 24 hours",6805 DPM/mg
same,AVG incorporation of 3H-glycine,"[3]; 50 μg/ml netilmicin, 24 hours",5815 DPM/mg
same,fungicidal activity (in words),yeast isolates,did not have any adverse effects on the fungicidal activity of fluoconazole and amphotericin B
same,antibacterial activity (in words),bacteria,effective against many aerobic gram-negative bacteria and some aerobic gram-positive bacteria
same,lack of antibacterial activity (in words),bacteria,inactive against most streptococci and most anaerobic bacteria
"CO[C@H]1/C=C/O[C@@]2(C)Oc3c(C)c(O)c4c(O)c(c(/C=N/N5CCN(C)CC5)c(O)c4c3C2=O)NC(=O)/C(C)=C\C=C\[C@H](C)[C@H](O)[C@@H](C)[C@@H](O)[C@@H](C)[C@H](OC(C)=O)[C@@H]1C [Rifampin, rifampin]",percent of control,[3]; 10 μg/ml rifampin,96% and 110% and 91% and 75% and 73% and 114%
same,percent of control,[3]; 30 μg/ml rifampin,94%
same,activity at 10 µg/mL,[4]; 10 μg/ml rifampin,93%
same,activity at 30 µg/mL,[4]; 30 μg/ml rifampin,80%
same,activity at 100 µg/mL,[4]; 100 μg/ml rifampin,42%
"CN[C@H](CC(C)C)C(=O)N[C@H]1C(=O)N[C@@H](CC(N)=O)C(=O)N[C@H]2C(=O)N[C@H]3C(=O)N[C@H](C(=O)N[C@H](C(=O)O)c4cc(O)cc(O)c4-c4cc3ccc4O)[C@H](O)c3ccc(c(Cl)c3)Oc3cc2cc(c3O[C@@H]2O[C@H](CO)[C@@H](O)[C@H](O)[C@H]2O[C@H]2C[C@](C)(N)[C@H](O)[C@H](C)O2)Oc2ccc(cc2Cl)[C@H]1O [Vancomycin, vancomycin]",antibacterial activity (in words),bacteria,"active against many gram-positive organisms, including staphylococci, streptococci, enterococci, Clostridium and Corynebacterium"
same,lack of antibacterial activity (in words),bacteria,inactive against gram-negative bacteria
